Results reported in patent US11040018B2, “Formulation for inhibiting formation of 5-HT2B agonists and methods of using same” (ZOGENIX INTERNATIONAL LIMITED, priority 2016, dated 2021).
Where “and” joins values, the source holds several entries; their conditions need not be identical. Identical values can stand only once.

Tests used:
[1] = Drug-drug interaction clinical trial: fenfluramine co-administered with stiripentol, clobazam and valproate; plasma levels of fenfluramine and norfenfluramine; conditions: healthy volunteers; for Exposure impact: ratio of AUC0-72 for combination treatment to AUC0-72 for fenfluramine alone: single dose, fenfluramine 0.8 mg/kg with stiripentol 3,500 mg, clobazam 20 mg, valproate 25 mg/kg (≤1,500 mg), blood plasma, interim results
Protocol: The effects of co-administration of a three-drug regimen on fenfluramine metabolism and resultant plasma levels of fenfluramine and its metabolite norfenfluramine was assessed in a clinical trial using in healthy volunteers.
A randomized, open-label, single-dose, 3-way cross-over study was designed to examine the effects of co-administering fenfluramine with a three-drug cocktail consisting of stiripentol, clobazam, and valproate. Each patient was treated sequentially with three treatment regimens, each being administered individually, according to six different treatment sequences which were assigned randomly.
Subjects were recruited from an existing pool of volunteers or through direct advertising, Prospects who had participated in a study within three months prior of dosing were excluded from the pool of potential participants. A full medical history for the preceding 12-month period was obtained from each subject's primary care physician and evaluated. Patients were then assessed according to the inclusion and exclusion criteria shown below. Persons chosen as study participants underwent a screening visit prior to participation to reassess and confirm compliance with those criteria.
AUC0-72 values were calculated based on blood plasma levels of fenfluramine and norfenfluramine levels. Exposure impact is expressed as a ratio of AUC0-72 values determined for patients receiving the combination treatment to the AUC0-72 values determined for patients receiving fenfluramine alone.

5-HT2B receptor = 5-HT2B receptor (Homo sapiens, UniProt P41595); conditions: cited from earlier work
CYP3A4 [2] = molecular target: CYP3A4 (Homo sapiens, UniProt P08684); conditions: cited from earlier work
CYP2B6 = molecular target: T1, CYP2B6 (Homo sapiens, UniProt P20813); conditions: cited from earlier work
T1 sequence (P20813 1-491): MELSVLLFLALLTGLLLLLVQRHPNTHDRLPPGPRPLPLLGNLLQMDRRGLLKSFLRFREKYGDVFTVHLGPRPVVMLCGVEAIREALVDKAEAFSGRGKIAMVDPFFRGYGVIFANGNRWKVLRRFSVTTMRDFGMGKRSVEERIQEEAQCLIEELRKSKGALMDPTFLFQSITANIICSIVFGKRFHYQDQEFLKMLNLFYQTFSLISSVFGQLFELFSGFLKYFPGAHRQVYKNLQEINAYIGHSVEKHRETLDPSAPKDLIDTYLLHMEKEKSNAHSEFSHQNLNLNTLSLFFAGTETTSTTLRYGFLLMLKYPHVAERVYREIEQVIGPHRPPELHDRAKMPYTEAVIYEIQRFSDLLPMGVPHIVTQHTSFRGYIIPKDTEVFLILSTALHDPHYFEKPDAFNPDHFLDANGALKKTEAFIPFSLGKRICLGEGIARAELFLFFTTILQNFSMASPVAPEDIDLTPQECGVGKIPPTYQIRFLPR

CYP1A2 = CYP1A2 (Homo sapiens, UniProt P05177); conditions: cited from earlier work
CYP2D6 = CYP2D6 (Homo sapiens, UniProt P10635); conditions: cited from earlier work
CYP2C19 = CYP2C19 (Homo sapiens, UniProt P33261); conditions: cited from earlier work
CYP2C9 = CYP2C9 (Homo sapiens, UniProt P11712); conditions: cited from earlier work
CYP2C8 = molecular target: T2, CYP2C8 (Homo sapiens, UniProt P10632); conditions: cited from earlier work
T2 sequence (P10632 1-490): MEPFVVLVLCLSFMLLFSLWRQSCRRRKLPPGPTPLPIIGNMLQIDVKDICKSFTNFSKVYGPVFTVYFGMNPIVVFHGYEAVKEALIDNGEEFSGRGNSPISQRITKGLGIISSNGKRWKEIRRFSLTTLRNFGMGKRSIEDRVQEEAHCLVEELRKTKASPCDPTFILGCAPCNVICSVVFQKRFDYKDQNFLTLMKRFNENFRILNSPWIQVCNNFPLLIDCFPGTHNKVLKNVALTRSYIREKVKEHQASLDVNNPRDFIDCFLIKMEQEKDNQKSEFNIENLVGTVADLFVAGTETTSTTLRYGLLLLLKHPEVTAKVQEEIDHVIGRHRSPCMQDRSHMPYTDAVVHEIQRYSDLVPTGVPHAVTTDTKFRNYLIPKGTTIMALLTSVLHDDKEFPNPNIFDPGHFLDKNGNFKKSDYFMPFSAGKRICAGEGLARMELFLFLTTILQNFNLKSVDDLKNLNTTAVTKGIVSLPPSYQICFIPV

CYP3A4 [3] = conditions: cited from earlier work

CYP2C9, sequence (P11712 whole entry): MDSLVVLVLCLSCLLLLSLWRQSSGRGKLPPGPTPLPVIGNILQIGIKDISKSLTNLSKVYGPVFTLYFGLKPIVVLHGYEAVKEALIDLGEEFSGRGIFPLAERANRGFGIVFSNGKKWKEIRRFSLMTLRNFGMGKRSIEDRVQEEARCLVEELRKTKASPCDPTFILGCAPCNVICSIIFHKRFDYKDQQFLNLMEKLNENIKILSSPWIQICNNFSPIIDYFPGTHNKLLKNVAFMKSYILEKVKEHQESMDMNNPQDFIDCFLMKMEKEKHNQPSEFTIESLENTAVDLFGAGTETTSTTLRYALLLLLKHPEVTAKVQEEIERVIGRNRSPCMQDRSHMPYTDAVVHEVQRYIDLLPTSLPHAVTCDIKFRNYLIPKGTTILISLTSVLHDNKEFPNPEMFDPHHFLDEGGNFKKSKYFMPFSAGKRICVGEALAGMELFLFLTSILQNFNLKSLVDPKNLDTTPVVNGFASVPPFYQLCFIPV
CYP1A2, sequence (P05177 whole entry): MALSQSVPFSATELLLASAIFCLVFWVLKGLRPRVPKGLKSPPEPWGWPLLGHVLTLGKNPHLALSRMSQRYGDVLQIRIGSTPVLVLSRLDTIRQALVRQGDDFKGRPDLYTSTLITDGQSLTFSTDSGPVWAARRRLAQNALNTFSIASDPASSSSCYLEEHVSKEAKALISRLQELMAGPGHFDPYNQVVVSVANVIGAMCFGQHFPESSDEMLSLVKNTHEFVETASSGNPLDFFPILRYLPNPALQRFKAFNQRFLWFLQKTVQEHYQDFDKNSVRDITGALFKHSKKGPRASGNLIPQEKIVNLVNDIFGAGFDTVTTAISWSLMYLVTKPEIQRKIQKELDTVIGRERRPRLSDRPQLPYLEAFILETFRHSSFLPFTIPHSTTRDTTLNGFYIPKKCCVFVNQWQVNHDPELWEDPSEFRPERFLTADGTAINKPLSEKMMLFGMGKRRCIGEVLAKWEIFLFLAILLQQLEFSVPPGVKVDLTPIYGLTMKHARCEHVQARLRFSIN
CYP3A4 (Homo sapiens, UniProt P08684), sequence (P08684 whole entry): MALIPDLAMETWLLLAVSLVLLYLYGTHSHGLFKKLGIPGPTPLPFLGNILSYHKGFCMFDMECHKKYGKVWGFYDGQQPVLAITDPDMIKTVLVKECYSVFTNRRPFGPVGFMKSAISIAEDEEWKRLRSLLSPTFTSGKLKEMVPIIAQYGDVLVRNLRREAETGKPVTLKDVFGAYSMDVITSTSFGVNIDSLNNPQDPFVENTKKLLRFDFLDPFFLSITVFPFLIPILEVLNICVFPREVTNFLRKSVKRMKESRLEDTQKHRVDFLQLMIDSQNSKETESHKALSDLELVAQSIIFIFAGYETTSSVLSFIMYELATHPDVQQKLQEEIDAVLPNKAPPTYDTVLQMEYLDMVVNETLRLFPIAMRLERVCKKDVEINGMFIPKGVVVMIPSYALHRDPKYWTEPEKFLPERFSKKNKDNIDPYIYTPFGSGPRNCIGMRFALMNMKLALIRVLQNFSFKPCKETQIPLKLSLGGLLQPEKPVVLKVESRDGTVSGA
CYP2C19, sequence (P33261 whole entry): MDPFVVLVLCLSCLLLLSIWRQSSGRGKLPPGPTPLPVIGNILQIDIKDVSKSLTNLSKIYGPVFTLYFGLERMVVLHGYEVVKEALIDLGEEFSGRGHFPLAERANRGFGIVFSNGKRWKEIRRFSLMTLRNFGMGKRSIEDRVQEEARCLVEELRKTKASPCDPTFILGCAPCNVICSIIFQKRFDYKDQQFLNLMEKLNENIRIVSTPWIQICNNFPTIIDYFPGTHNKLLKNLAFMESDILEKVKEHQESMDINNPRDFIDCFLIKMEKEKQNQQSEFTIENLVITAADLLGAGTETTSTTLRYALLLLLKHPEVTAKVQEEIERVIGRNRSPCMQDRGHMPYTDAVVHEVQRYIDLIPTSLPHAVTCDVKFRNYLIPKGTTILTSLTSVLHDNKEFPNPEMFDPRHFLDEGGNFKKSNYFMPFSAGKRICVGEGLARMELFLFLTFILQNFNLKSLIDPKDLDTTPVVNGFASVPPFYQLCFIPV
CYP2D6, sequence (P10635 whole entry): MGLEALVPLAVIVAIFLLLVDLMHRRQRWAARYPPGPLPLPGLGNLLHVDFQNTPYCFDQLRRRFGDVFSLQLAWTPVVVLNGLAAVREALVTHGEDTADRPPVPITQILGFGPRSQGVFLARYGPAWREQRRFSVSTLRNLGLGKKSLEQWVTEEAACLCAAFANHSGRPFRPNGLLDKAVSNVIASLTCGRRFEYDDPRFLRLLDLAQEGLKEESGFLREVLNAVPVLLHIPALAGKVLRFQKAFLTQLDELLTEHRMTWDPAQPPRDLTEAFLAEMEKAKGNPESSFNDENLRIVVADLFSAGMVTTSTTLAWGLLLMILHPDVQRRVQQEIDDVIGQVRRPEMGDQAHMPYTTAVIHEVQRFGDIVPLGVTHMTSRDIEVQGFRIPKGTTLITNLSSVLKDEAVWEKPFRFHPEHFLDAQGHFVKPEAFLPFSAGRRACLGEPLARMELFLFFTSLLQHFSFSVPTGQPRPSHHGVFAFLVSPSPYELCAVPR
5-HT2B receptor, sequence (P41595 whole entry): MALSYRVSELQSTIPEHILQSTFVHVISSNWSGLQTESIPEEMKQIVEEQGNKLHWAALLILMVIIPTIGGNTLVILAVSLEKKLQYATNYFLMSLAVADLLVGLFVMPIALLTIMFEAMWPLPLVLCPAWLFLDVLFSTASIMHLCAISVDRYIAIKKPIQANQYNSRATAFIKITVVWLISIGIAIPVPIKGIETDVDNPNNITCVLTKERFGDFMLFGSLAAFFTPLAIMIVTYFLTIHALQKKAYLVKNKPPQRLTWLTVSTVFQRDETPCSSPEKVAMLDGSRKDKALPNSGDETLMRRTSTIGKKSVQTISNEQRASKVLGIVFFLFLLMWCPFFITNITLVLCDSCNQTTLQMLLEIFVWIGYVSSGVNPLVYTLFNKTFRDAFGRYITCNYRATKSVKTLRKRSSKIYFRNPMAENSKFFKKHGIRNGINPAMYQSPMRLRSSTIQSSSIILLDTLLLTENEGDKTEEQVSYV

In the case of CCNC(C)Cc1cccc(C(F)(F)F)c1 (racemic) [fenfluramine, 3-trifluoromethyl-N-ethylamphetamine], the “Exposure impact: ratio of AUC0-72 for combination treatment to AUC0-72 for fenfluramine alone” value [1] is listed as 1.66 and 1.67 and the “Agonistic effect on 5-HT2B receptor” value (5-HT2B receptor) is listed as “does not have significant agonistic effects”.
For C=C(C)[C@@H]1CCC(C)=C[C@H]1c1c(O)cc(CCCCC)cc1O [cannabidiol], the “Inhibition of CYP3A4” value (CYP3A4 [2]) is given as “potent inhibitor”, the “Inhibition of CYP2B6” value (CYP2B6) is given as “potent inhibitor” and the “Inhibition of CYP1A2” value (CYP1A2) is given as “potent inhibitor of CYP1A2 (time-dependent effect)”. The “Inhibition of CYP2D6” value (CYP2D6) was “inhibitory effects”, the “Inhibition of CYP2C19” value (CYP2C19) was “inhibitory effects” and the “Inhibition of CYP2C9” value (CYP2C9) was “inhibitory effects”. For the same compound, the “Inhibition of CYP2C8” value (CYP2C8) was “inhibitory effects”.
In the case of CN1C(=O)CC(=O)N(c2ccccc2)c2cc(Cl)ccc21 [clobazam], the “Induction of CYP3A4” value (CYP3A4 [3]) is given as “weak inducer” and the “Inhibition of CYP2D6” value (CYP2D6) is given as “strongly inhibits”.
For CC(N)Cc1cccc(C(F)(F)F)c1 (stereo not drawn) [norfenfluramine], the “Exposure impact: ratio of AUC0-72 for combination treatment to AUC0-72 for fenfluramine alone” value [1] is given as 0.59, the “Reduction of patient exposure to norfenfluramine” value ([1]; fenfluramine co-administered with stiripentol, clobazam and valproate) is given as about 30% and the “Agonistic effect on 5-HT2B receptor” value (5-HT2B receptor) is given as “particularly potent 5-HT2B agonist”.
In the case of CC(C)(C)C(O)/C=C/c1ccc2c(c1)OCO2 (stereo not drawn) [stiripentol], the “Inhibition of CYP3A4” value (CYP3A4 [2]) is given as “strongly inhibits”, the “Inhibition of CYP1A2” value (CYP1A2) is given as “strongly inhibits” and the “Inhibition of CYP2C19” value (CYP2C19) is given as “less strongly”. For the same compound, the “Inhibition of CYP2C9” value (CYP2C9) was “less strongly”.
